Test results published in patent publication US4451472A, “Inhibition of thromboxane synthetase with 3-(heteroalkyl)-indolyl-acrylic acid derivatives” (Pfizer Inc., priority 1981, dated 1984).
Where two headings read alike, the source gives them in different places.

Tested on: thromboxane B2 (TxB2) formation
Test: TxB2 generation in clotted whole blood of anaesthetized rabbits after intravenous dosing (method of Patrono et al., RIA)
Type: in vivo, New Zealand white rabbits
Settings: Oryctolagus cuniculus, read-out: Percent Inhibition (%) of TxB2 formation; for inhibition at 1 mg/kg: 1.0 mg/kg i.v.; for inhibition at 0.3 mg/kg: 0.3 mg/kg i.v.; for inhibition at 0.1 mg/kg: 0.1 mg/kg i.v.
Procedure: A number of in vivo tests in animals have also been described for evaluating potential anti-thrombotic drugs. For instance, the method of Patrono et al. is adapted to study the generation of TxB2 in whole blood samples removed from animals prior to and following drug treatment. Briefly, blood samples are taken into glass tubes and allowed to clot at 37° C. Serum is then separated by centrifugation and the samples stored at -40° C. until assayed for TxB2, when appropriate dilutions of ethanol deproteinized samples are thereafter analyzed by RIA. This technique is used in experiments with the test compounds to determine intravenous potency in anesthetized rabbits.
In this study, male New Zealand white rabbits (2.6-5.6 kg.) are anesthetized with sodium pentobarbitone (30 mg./kg., i.v.), followed by urethane (500 mg./kg., i.p.). After cannulation of the trachea, a carotid artery is catheterized for collection of the blood samples. The catheter is kept patent by slow infusion (0.2 ml./minutes) of sterile saline. Control carotid arterial blood samples are then taken at 30 minutes and at 5 minutes prior to administration of the test compound or vehicle (0.9% w./v. NaCl, 0.2 ml./kg.) via a marginal ear vein. Three groups of rabbits are employed in the test. The first group is given the test compound at 0.03 mg./kg., followed one hour later by a second dose at 0.1 mg./kg. Similarly, the second group is administered the test compound at 0.3 mg./kg., followed by a second dose (one hour later) at 1.0 mg./kg. The third group is treated with the vehicle alone, followed one hour later by a further vehicle injection. Carotid arterial blood samples are then taken at various time intervals after all doses. At each time point, a 1.0 ml. blood sample is taken into a glass tube, without anticoagulant, for TxB2 determination. For the latter determination, the blood sample is allowed to clot during a two-hour incubation period at 37° C. (which preliminary experiments had already shown to give a maximum TxB2 production) and the resulting serum obtained by centrifugation. The serum samples are then processed through the TxB2 -RIA after deproteinization with ethanol and dilution with Isogel Tris buffer.

| SMILES | inhibition at 1 mg/kg (2 min, 2 min) [%] | inhibition at 0.3 mg/kg (0.25 h, 15 min) [%] | inhibition at 1 mg/kg (0.25 h, 15 min) [%] | inhibition at 0.3 mg/kg (0.5 h, 30 min) [%] | inhibition at 1 mg/kg (0.75 h, 45 min) [%] | inhibition at 1 mg/kg (1.25 h, 75 min) [%] | inhibition at 0.3 mg/kg (2 min, 2 min) [%] | inhibition at 0.1 mg/kg (0.25 h, 15 min) [%] | inhibition at 0.1 mg/kg (0.5 h, 30 min) [%] | inhibition at 0.3 mg/kg (0.75 h, 45 min) [%] | inhibition at 0.3 mg/kg (1.25 h, 75 min) [%] |
| --- | --- | --- | --- | --- | --- | --- | --- | --- | --- | --- | --- |
| Cc1c(Cn2ccnc2)c2ccccc2n1/C=C/C(=O)O [Ex. 1, E-3-{1-[2-methyl-3-(1-imidazolyl-methyl)]indolyl}-acrylic acid] | 93 | 93 | 96 | 93 | 95 | 95 |  |  |  |  |  |
| Cc1c(Cc2cccnc2)c2ccccc2n1/C=C/C(=O)O [Ex. 2, E-3-{1-[2-methyl-3-(3-pyridylmethyl)]indolyl}-acrylic acid] | 97 | 98 | 94 |  | 97 | 95 | 95 | 81 | 82 | 93 | 90 |
